Literature values in patent publication US9403744B2, “Process for the production of alkyl ethers by the etherification of isobutene” (SAIPEM S.p.A., priority 2006, dated 2016).

Details: in water

Compound | Solubility in H2O [w %]
CCC(C)(C)OC [TAME, methyl ter-amyl ether] | 1.1
CCOC(C)(C)C [ETBE, ethyl ter-butyl ether] | 1.2
